From patent US20100249089A1, “ABCG2 INHIBITOR” (KABUSHIKI KAISHA YAKULT HONSHA, priority 2007, published 2010)
Where two headings read alike, the source gives them in different places.

Columns and labels:
[1] = Solubility (HPLC quantification of supernatant); assay type: physicochemical; details: thermodynamic from solid, room temperature, stirred about 30 minutes, 100 mg/mL charged
Protocol: Each (10 mg) of the compounds of the present invention and Earlier Application Compound 14 shown in Table 5 was weighed and placed in a sealable container, and water or 5% glucose solution was added to the container in such an amount as to adjust the final concentration to 100 mg/mL. The contents of the container were stirred at room temperature for about 30 minutes, followed by centrifugation. The compound concentration of the supernatant recovered through centrifugation was quantified through high-performance liquid chromatography.

[2] = system: BCRP-gene-transfected human colon cancer HCT116 cells (HCT116/BCRP cells); assay: Effect of overcoming anticancer agent resistance in vivo (oral administration), HCT116/BCRP xenograft with CPT-11; parameters: species or system BALB/c male nude mice
Protocol: To an inguinal region of each of 6-week-old BALB/c male nude mice (5 mice/group), BCRP-gene-transfected human colon cancer HCT116 cells (HCT116/BCRP cells) (obtained from Dr. Yoshikazu Sugimoto, The Cancer Chemotherapy Center of Japanese Foundation for Cancer Research) were subcutaneously transplanted (2×10^6 cells/0.1 mL/mouse). When the tumor volume as estimated from (1/2)ab^2 (a: longer tumor diameter, b: shorter tumor diameter) reached about 100 to 150 mm^3, each of the compounds of the present invention shown in Tables 1 to 4 and a positive control compound (i.e., Compound 14 ((Z)-2-(3,4-dimethoxy-phenyl)-3-{5-[4-(2-hydroxy-ethyl)-piperazin-1-yl]-thiophen-2-yl}-acrylonitrile hydrochloride)), disclosed in Patent Document 3 (WO 2006/106778)) (hereinafter referred to as Earlier Application Compound 14) was orally administered once a day for nine days (9 times in total). […] The dose of each of the compounds of the present invention was adjusted to 0.20 or 0.40 mmol/kg/day, and that of the positive control compound was adjusted to 0.23 or 0.46 mmol/kg/day. For administration, Compound 3 or 5 of the present invention was dissolved in 5% glucose solution, and Compound 4 or 6 was dissolved in Britton-Robinson buffer. […] A solvent was solely administered to a control group. On day 21 from start of administration, a tumor was extirpated from each mouse and weighed, and the tumor growth inhibition ratio IR (%) was derived from the following equation:
Tumor growth inhibition ratio IR (%)=(1−average tumor weight of each administration group/average tumor weight of control group)×100.

[3] = Solubility (HPLC quantification of supernatant); assay type: physicochemical; details: saline or isotonic, thermodynamic from solid; physiological saline, room temperature
[4] = saline or isotonic, 5% glucose solution, read-out: Solubility in 5% glucose
[5] = water, read-out: Solubility in water
[6] = compound 0.20 mmol/kg/day oral once a day for nine days + CPT-11 45 mg/kg/day i.v. day 1, 5, 9, day 21, vs control group
[7] = compound 0.20 mmol/kg/day oral once a day for nine days + CPT-11 45 mg/kg/day i.v. day 1, 5, 9, tumor weighed day 21
[8] = compound 0.40 mmol/kg/day oral once a day for nine days + CPT-11 45 mg/kg/day i.v. day 1, 5, 9, day 21, vs control group
[9] = compound 0.40 mmol/kg/day oral once a day for nine days + CPT-11 45 mg/kg/day i.v. day 1, 5, 9, tumor weighed day 21
[10] = positive control 100 mg/kg/day (0.23 mmol/kg/day) oral for nine days + CPT-11 45 mg/kg/day i.v. day 1, 5, 9, day 21
[11] = positive control 200 mg/kg/day (0.46 mmol/kg/day) oral for nine days + CPT-11 45 mg/kg/day i.v. day 1, 5, 9, day 21

Structure (SMILES)	solubility [1, 4] [mg/mL]	solubility [1, 5] [mg/mL]	solubility [3] [mg/mL]	Tumor growth inhibition ratio IR (%) [2, 6] [%]	Tumor weight (g) Mean ± S.D. [2, 7] [g]	Tumor growth inhibition ratio IR (%) [2, 8] [%]	Tumor weight (g) Mean ± S.D. [2, 9] [g]	also measured
COc1ccc(/C(C#N)=C/c2ccc(N3CCC(OC(=O)CN4CCCC4)CC3)s2)cc1OC.CS(=O)(=O)O [Compound 10, pyrrolidin-1-yl-acetic acid 1-[5-[(Z)-2-cyano-2-(3,4-dimethoxy-phenyl)-vinyl]-thiophen-2-yl]-piperidin-4-yl ester methanesulfonate]	≥ 100	≥ 100						
COc1ccc(/C(C#N)=C/c2ccc(N3CCC(OC(=O)CN4CCC(O)CC4)CC3)s2)cc1OC.CS(=O)(=O)O [Compound 6, (4-hydroxy-piperidin-1-yl)-acetic acid 1-[5-[(Z)-2-cyano-2-(3,4-dimethoxy-phenyl)-vinyl]-thiophen-2-yl]-piperidin-4-yl ester methanesulfonate]				36.9	0.82 ± 0.04	41.8	0.76 ± 0.09	
COc1ccc(/C(C#N)=C/c2ccc(N3CCN(CCO)CC3)s2)cc1OC.Cl [EAC 14, (Z)-2-(3,4-dimethoxy-phenyl)-3-{5-[4-(2-hydroxy-ethyl)-piperazin-1-yl]-thiophen-2-yl}-acrylonitrile hydrochloride, reference compound]	6.6	6.6	< 1					Tumor growth inhibition ratio IR (%) [2, 10]: 23.9%; Tumor weight (g) Mean ± S.D. [2, 10]: 1.04 ± 0.17 g; Tumor growth inhibition ratio IR (%) [2, 11]: 35.6%; Tumor weight (g) Mean ± S.D. [2, 11]: 0.88 ± 0.14 g
COc1ccc(/C(C#N)=C/c2ccc(N3CCC(OC(=O)CN4CCC4)CC3)s2)cc1OC.CS(=O)(=O)O [Compound 8, azetidin-1-yl-acetic acid 1-[5-[(Z)-2-cyano-2-(3,4-dimethoxy-phenyl)-vinyl]-thiophen-2-yl]-piperidin-4-yl ester methanesulfonate]	≥ 100	≥ 100						
COc1ccc(/C(C#N)=C/c2ccc(N3CCC(OC(=O)CN4CCC(O)CC4)CC3)s2)cc1OC.Cl [Compound 4, (4-hydroxy-piperidin-1-yl)-acetic acid 1-[5-[(Z)-2-cyano-2-(3,4-dimethoxy-phenyl)-vinyl]-thiophen-2-yl]-piperidin-4-yl ester hydrochloride]				31.8	0.89 ± 0.09	46.4	0.70 ± 0.11	
COc1ccc(/C(C#N)=C/c2ccc(N3CCC(OC(=O)CN4CCCCC4)CC3)s2)cc1OC.Cl [Compound 3, piperidin-1-yl-acetic acid 1-[5-[(Z)-2-cyano-2-(3,4-dimethoxy-phenyl)-vinyl]-thiophen-2-yl]-piperidin-4-yl ester hydrochloride]				51.9	0.73 ± 0.07	54.7	0.65 ± 0.11	
COc1ccc(/C(C#N)=C/c2ccc(N3CCC(OC(=O)CN4CCCCC4)CC3)s2)cc1OC.CS(=O)(=O)O [Compound 5, piperidin-1-yl-acetic acid 1-[5-[(Z)-2-cyano-2-(3,4-dimethoxy-phenyl)-vinyl]-thiophen-2-yl]-piperidin-4-yl ester methanesulfonate]	≥ 100	≥ 100	100	50.9	0.73 ± 0.12	55.9	0.65 ± 0.16	

More lines, main results first:

solubility [1, 4] [mg/mL]	solubility [1, 5] [mg/mL]	solubility [3] [mg/mL]	Structure (SMILES)	Tumor growth inhibition ratio IR (%) [2, 6] [%]	Tumor weight (g) Mean ± S.D. [2, 7] [g]	Tumor growth inhibition ratio IR (%) [2, 8] [%]	Tumor weight (g) Mean ± S.D. [2, 9] [g]	also measured
≥ 100	≥ 100		COc1ccc(/C(C#N)=C/c2ccc(N3CCC(OC(=O)CN4CCCCCC4)CC3)s2)cc1OC.CS(=O)(=O)O [Compound 16, azepan-1-yl-acetic acid 1-[5-[(Z)-2-cyano-2-(3,4-dimethoxy-phenyl)-vinyl]-thiophen-2-yl]-piperidin-4-yl ester methanesulfonate]					
≥ 100	≥ 100	100	COc1ccc(/C(C#N)=C/c2ccc(N3CCC(OC(=O)CN4CCCCC4C)CC3)s2)cc1OC.CS(=O)(=O)O (stereo not drawn) [Compound 12, (2-methyl-piperidin-1-yl)-acetic acid 1-[5-[(Z)-2-cyano-2-(3,4-dimethoxy-phenyl)-vinyl]-thiophen-2-yl]-piperidin-4-yl ester methanesulfonate]					
≥ 100	≥ 100	100	COc1ccc(/C(C#N)=C/c2ccc(N3CCC(OC(=O)CN4CCN(C)CC4)CC3)s2)cc1OC.CS(=O)(=O)O [Compound 20, (4-methyl-piperazin-1-yl)-acetic acid 1-[5-[(Z)-2-cyano-2-(3,4-dimethoxy-phenyl)-vinyl]-thiophen-2-yl]-piperidin-4-yl ester methanesulfonate]					
≥ 100	≥ 100		COc1ccc(/C(C#N)=C/c2ccc(N3CCC(OC(=O)CN4CCOCC4)CC3)s2)cc1OC.CS(=O)(=O)O [Compound 22, morpholin-4-yl-acetic acid 1-[5-[(Z)-2-cyano-2-(3,4-dimethoxy-phenyl)-vinyl]-thiophen-2-yl]-piperidin-4-yl ester methanesulfonate]					
≥ 100	≥ 100		COc1ccc(/C(C#N)=C/c2ccc(N3CCC(OC(=O)CN4CCCCCCC4)CC3)s2)cc1OC.CS(=O)(=O)O [Compound 18, azocan-1-yl-acetic acid 1-[5-[(Z)-2-cyano-2-(3,4-dimethoxy-phenyl)-vinyl]-thiophen-2-yl]-piperidin-4-yl ester methanesulfonate]					
≥ 100	≥ 100	100	COc1ccc(/C(C#N)=C/c2ccc(N3CCC(OC(=O)CN4CCCC(CO)C4)CC3)s2)cc1OC.CS(=O)(=O)O (stereo not drawn) [Compound 14, (3-hydroxymethyl-piperidin-1-yl)-acetic acid 1-[5-[(Z)-2-cyano-2-(3,4-dimethoxy-phenyl)-vinyl]-thiophen-2-yl]-piperidin-4-yl ester methanesulfonate]					
